Assays:
Phytophthora infestans = assay: whole plant or invertebrate; assay type: in vivo; settings: for efficacy: tomato plants, protective spray, 10 ppm active ingredient, evaluation 3 days after inoculation, 0% = control, 100% = no infection; for pest or weed control at 10 ppm: Phytophthora infestans, in Solanum lycopersicum, 72 h, read-out: efficacy
Plasmopara viticola = assay: Plasmopara test (grapevine)/protective; assay type: in vivo; settings: grapevine plants, protective spray, 10 ppm active ingredient, evaluation 6 days after inoculation, 0% = control, 100% = no infection; for pest or weed control at 10 ppm: Plasmopara viticola, 144 h, read-out: efficacy
Method: Plasmopara Test (Grapevine)/Protective
To prepare an appropriate active ingredient preparation, 1 part by weight of active ingredient is mixed with the stated amounts of solvent and emulsifier, and the concentrate is diluted with water to the desired concentration.
To test for protective efficacy, young plants are sprayed with the active ingredient preparation at the stated application rate. After the spray coating has dried on, the plants are inoculated with an aqueous spore suspension of Plasmopara viticola and then remain in an incubation cabinet at about 20° C. and 100% relative atmospheric humidity for 1 day. The plants are then placed in a greenhouse at approx. 21° C. and approx. 90% air humidity for 4 days. The plants are then moistened and placed in an incubation cabinet for 1 day.
Evaluation follows 6 days after the inoculation.

[1] = for logp [b]: pH 2.7; for logp [a]: pH 2.3; for logp [c]: pH 7.8
From the text: (§1) The determination is effected in the acidic range at pH 2.3 using 0.1% aqueous phosphoric acid and acetonitrile as eluents; linear gradient from 10% acetonitrile to 95% acetonitrile. • ^[b] The LC-MS determination in the acidic range is effected at pH 2.7 using 0.1% aqueous formic acid and acetonitrile (contains 0.1% formic acid) as eluents; linear gradient from 10% acetonitrile to 95% acetonitrile. • ^[c] The LC-MS determination in the neutral range is effected at pH 7.8 using 0.001 molar aqueous ammonium hydrogencarbonate solution and acetonitrile as eluents; linear gradient from 10% acetonitrile to 95% acetonitrile.
(§2) The calibration is effected with unbranched alkan-2-ones (having 3 to 16 carbon atoms) with known log P values (determination of the log P values using the retention times by linear interpolation between two successive alkanones).

Peronospora brassicae = assay: Peronospora test (rapeseed)/seed treatment; assay type: in vivo; settings: 50 g/dt active ingredient, greenhouse, infected leaf area per plant, 0% = control, 100% = no infestation
Method: Peronospora Test (Rapeseed)/Seed Treatment
The test was carried out under greenhouse conditions.
To produce an active ingredient preparation, the active ingredient was dissolved in N-methyl-2-pyrrolidone and the concentrate was diluted with water to the desired concentration. The rapeseeds treated with this solution were sown in 6*6 cm pots which had been filled to a height of 4 cm with a 1:1 mixture of steam-treated soil and sand. Then the plants were cultivated at 10° C.
After 14 days, the plants were inoculated with an aqueous spore suspension of Peronospora brassicae. Subsequently, the plants were placed in a greenhouse at approx. 15° C. and 100% air humidity for 7 days.
The evaluation was effected by assessing the infected leaf area per plant. 0% means an efficiency which corresponds to that of the control, while an efficiency of 100% means that no infestation is observed.

From the text for physchem: as §1, §2

In the case of `CS(=O)(=O)Nc1ccc(C2CC(c3csc(C4CCN(C(=O)Cn5nc(C(F)F)cc5C(F)F)CC4)n3)=NO2)cc1` (racemic) [I-40], the efficacy (Phytophthora infestans) is reported as 95%, the efficacy (Plasmopara viticola) is reported as 91% and the “logp [b]” value [1] is reported as 2.41^[b].
In the case of `C#CCOc1ccccc1C1CC(c2csc(C3CCN(C(=O)Cn4nc(C(F)F)cc4C(F)F)CC3)n2)=NO1` (racemic) [I-39], the efficacy (Phytophthora infestans) is reported as 99%, the efficacy (Plasmopara viticola) is reported as 99% and the “logp [a]” value [1] is reported as 3.28^[a]. The “logp [c]” value [1] was 3.23^[c];.
In the case of `CC(=O)c1cccc(C2CC(c3csc(C4CCN(C(=O)Cn5nc(C(F)F)cc5C(F)F)CC4)n3)=NO2)c1` (racemic) [I-8], the efficacy (Phytophthora infestans) is reported as 97%, the efficacy (Plasmopara viticola) is reported as 99% and the “logp [b]” value [1] is reported as 2.78^[b].
Work on `O=C(Cn1nc(C(F)F)cc1C(F)F)N1CCC(c2nc(C3=NOC(c4ccccc4)C3)cs2)CC1` (racemic) [I-1] yielded an efficacy (Phytophthora infestans) of 95%, an efficacy (Plasmopara viticola) of 100% and an efficiency (Peronospora brassicae) of 100%. For the same compound, the “logp [b]” value [1] was 3.17^[b]; and the “logp [c]” value [1] was 3.11^[c].
In the case of `O=C(Cn1nc(C(F)F)cc1C(F)F)N1CCC(c2nc(C3=NOC(c4c(F)cccc4F)C3)cs2)CC1` (racemic) [I-2], the efficacy (Phytophthora infestans) is reported as 99%, the efficacy (Plasmopara viticola) is reported as 100% and the “logp [b]” value [1] is reported as 3.14^[b].
With `O=Cc1cccc(C2CC(c3csc(C4CCN(C(=O)Cn5nc(C(F)F)cc5C(F)F)CC4)n3)=NO2)c1` (racemic) [I-23] the efficacy (Phytophthora infestans) was 97%, the efficacy (Plasmopara viticola) was 99% and the “logp [b]” value [1] was 2.78^[b].
For `O=C(Cn1nc(C(F)F)cc1C(F)F)N1CCC(c2nc(C3=NOC(c4cccc(O)c4)C3)cs2)CC1` (racemic) [I-42], the efficacy (Phytophthora infestans) was 94%, the efficacy (Plasmopara viticola) was 97% and the “logp [a]” value [1] was 2.43^[a]. For the same compound, the “logp [c]” value [1] was 2.45^[c];.
In the case of `O=C(Cn1nc(C(F)F)cc1C(F)F)N1CCC(F)(c2nc(C3=NOC(c4c(F)cccc4F)C3)cs2)CC1` (racemic) [I-6], the efficacy (Phytophthora infestans) is reported as 94%, the efficacy (Plasmopara viticola) is reported as 100% and the efficiency (Peronospora brassicae) is reported as 100%. The “logp [b]” value [1] was 3.43^[b]; and the “logp [c]” value [1] was 3.34^[c].
Work on `Nc1ccccc1C1CC(c2csc(C3CCN(C(=O)Cn4nc(C(F)F)cc4C(F)F)CC3)n2)=NO1` (stereo not drawn) [I-41, 1-(4-{4-[5-(2-Aminophenyl)-4,5-dihydro-1,2-oxazol-3-yl]-1,3-thiazol-2-yl}piperidin-1-yl)-2-[3,5-bis(difluoromethyl)-1H-pyrazol-1-yl]ethanone] yielded a pest or weed control at 10 ppm (Phytophthora infestans) of 94%, a pest or weed control at 10 ppm (Plasmopara viticola) of 100% and a chromatographic logP (physchem; pH 2.3) of 2.7. The chromatographic logP (physchem; pH 7.8, logp [c]) was 2.71.
`O=C(Cn1nc(C(F)F)cc1C(F)F)N1CCC(F)(c2nc(C3=NOC(c4ccccc4)C3)cs2)CC1` (stereo not drawn) [I-5, 2-[3,5-bis(difluoromethyl)-1H-pyrazol-1-yl]-1-{4-fluoro-4-[4-(5-phenyl-4,5-dihydro-1,2-oxazol-3-yl)-1,3-thiazol-2-yl]piperidin-1-yl}ethanone] gave a pest or weed control at 10 ppm (Phytophthora infestans) of 93%, a pest or weed control at 10 ppm (Plasmopara viticola) of 97% and a chromatographic logP (physchem; pH 2.7, log P (HCOOH)) of 3.41. The chromatographic logP (physchem; pH 2.7, logp [b]) was 3.41.
With `C#CCOc1ccc(C2CC(c3csc(C4CCN(C(=O)Cn5nc(C(F)F)cc5C(F)F)CC4)n3)=NO2)cc1` (racemic) [I-22] the efficacy (Phytophthora infestans) was 98%, the efficacy (Plasmopara viticola) was 97% and the “logp [a]” value [1] was 3.14^[a];. The “logp [c]” value [1] was 3.08^[c].
In the case of `O=C(Cn1nc(C(F)F)cc1C(F)F)N1CCC(c2nc(-c3cc(-c4ccccc4)on3)cs2)CC1` [I-3], the efficacy (Phytophthora infestans) is reported as 100%, the efficacy (Plasmopara viticola) is reported as 100% and the “logp [b]” value [1] is reported as 3.66^[b].
`O=Cc1ccccc1C1CC(c2csc(C3CCN(C(=O)Cn4nc(C(F)F)cc4C(F)F)CC3)n2)=NO1` (stereo not drawn) [I-26, 2-{3-[2-(1-{[3,5-Bis(difluoromethyl)-1H-pyrazol-1-yl]acetyl}piperidin-4-yl)-1,3-thiazol-4-yl]-4,5-dihydro-1,2-oxazol-5-yl}benzaldehyde] showed a pest or weed control at 10 ppm (Phytophthora infestans) of 97%, a pest or weed control at 10 ppm (Plasmopara viticola) of 100% and a chromatographic logP (physchem; pH 2.7, logp [b]) of 2.98.
With `CC#CCOc1cccc(C2CC(c3csc(C4CCN(C(=O)Cn5nc(C(F)F)cc5C(F)F)CC4)n3)=NO2)c1` (racemic) [I-15] the efficacy (Phytophthora infestans) was 95%, the efficacy (Plasmopara viticola) was 93% and the “logp [a]” value [1] was 3.29^[a]. The “logp [c]” value [1] was 3.33^[c];.
With `C#CCOc1cccc(C2CC(c3csc(C4CCN(C(=O)Cn5nc(C(F)F)cc5C(F)F)CC4)n3)=NO2)c1` (racemic) [I-21] the efficacy (Phytophthora infestans) was 98%, the efficacy (Plasmopara viticola) was 100% and the “logp [a]” value [1] was 3.24^[a]. For the same compound, the “logp [c]” value [1] was 3.16^[c];.
Compound `CC(=O)c1ccccc1C1CC(c2csc(C3CCN(C(=O)Cn4nc(C(F)F)cc4C(F)F)CC3)n2)=NO1` (stereo not drawn) [I-7, 1-(4-{4-[5-(2-Acetylphenyl)-4,5-dihydro-1,2-oxazol-3-yl]-1,3-thiazol-2-yl}piperidin-1-yl)-2-[3,5-bis(difluoromethyl)-1H-pyrazol-1-yl]ethanone] has a pest or weed control at 10 ppm (Phytophthora infestans) of 97%, a pest or weed control at 10 ppm (Plasmopara viticola) of 100% and an efficiency (Peronospora brassicae) of 100%. It also gave a chromatographic logP (physchem; pH 2.7, logp [b]) of 3.08.
In the case of `CCC#CCOc1ccccc1C1CC(c2csc(C3CCN(C(=O)Cn4nc(C(F)F)cc4C(F)F)CC3)n2)=NO1` (racemic) [I-25], the efficacy (Phytophthora infestans) is reported as 95%, the efficacy (Plasmopara viticola) is reported as 74% and the “logp [b]” value [1] is reported as 3.91^[b].
